Measured values taken from US11919873B1, “1,3-benzothiazol-2-yl-N′-(benzoyloxy)ethanimidamide as an antitumor and antimicrobial compound” (priority 2023, dated 2024).

Columns and labels:
[1] = test system: human prostate cancer cells (PC3); assay: Assessment of cytotoxicity by SRB assay, PC3; type: cell-based; details: 72 h, 0.01 μM to 100 μM, result in words only
Procedure: (§1) The human prostate cancer cells (PC3) and human osteosarcoma cells (MG-63) were obtained from Nawah Scientific Inc. (Mokatam, Cairo, Egypt) and cultured in DMEM (Dulbecco's modified eagle's medium), Gibco, USA, supplemented with fetal bovine serum (FBS) at a concentration of 10% and 100 U/mL of penicillin and streptomycin (PS). The cells were incubated at 37° C. in a humidified environment that contained 5% CO2. Cells were seeded in 96-well plates as aliquots of 100 μL cell suspension and incubated in a complete media for 24 h. Afterward, cells were treated with 3-(4-chlorophenyl)-5-{[5-methyl-2-(propan-2-yl)phenoxy]methyl}-1,2,4-oxadiazole at diverse concentrations ranging from 0.01 μM to 100 μM for 72 h. Then, cells were fixed at 4° C. for one hour with 150 μL of 10% trichloroacetic acid (TCA). […] Then, 150 μL of Tris pH 10.5 (10 mM) was added, and the absorbance was measured at 540 nm using a BMG LABTECH®—FLUOstar Omega microplate reader (Ortenberg, Germany). Half maximal inhibitory concentrations (IC50) values were calculated for each experiment using GraphPad Prism 6 software. […] The inhibition was calculated using the following equation: Inhibition %=100−Average Viability The anticancer activity of 1,3-benzothiazol-2-yl-N′-(benzoyloxy)ethanimidamide was assessed against highly aggressive androgen-independent metastatic human prostate cancer cells (PC3) and osteosarcoma (MG-63) cells.

[2] = test system: Bacillus cereus, Staphylococcus aureus, Pseudomonas aeruginosa, Escherichia coli, Aspergillus flavus, Chrysosporium keratinophilum; assay: Agar plate disc-diffusion antimicrobial test; type: cell-based; details: 10 μL of 10 mg/mL in DMSO per disc, bacteria and fungi, result in words only
Procedure: The agar plate disc-diffusion method was applied. Sterilized filter papers (6 mm in diameter) were wetted with 10 μL of a solution of each compound to be tested, containing 10 mg/mL in DMSO, and the discs were allowed to air dry. The discs were then placed onto the surface of agar plates (nutrient agar for bacteria and Sabouraud's dextrose agar for fungi) and seeded with the test organism. Each plate contained 15 mL of the agar medium, previously seeded with 0.2 mL of the broth culture of each organism pre-grown for 18 hours. The plates were incubated at 37° C. for 48 hours, and 72 hours for fungi. The inhibition zones were measured in mm. Discs impregnated with DMSO were used as a control, and its inhibition zone was subtracted from the tested compound actual inhibition zone. In particular, the present 1,3-benzothiazol-2-yl-N′-(benzoyloxy)ethanimidamide was screened against gram positive bacteria, namely Bacillus cereus and Staphylococcus aureus, and gram-negative bacterial strains, namely Pseudomonas aeruginosa and Escherichia coli, while the antifungal activity was screened against Aspergillus flavus and Chrysosporium keratinophilum.

[3] = test system: human osteosarcoma cells (MG-63); assay: Assessment of cytotoxicity by SRB assay, MG-63; type: cell-based; details: 72 h, 0.01 μM to 100 μM, result in words only
Procedure: as §1

N/C(Cc1nc2ccccc2s1)=N\OC(=O)c1ccccc1 [1,3-benzothiazol-2-yl-N′-(benzoyloxy)ethanimidamide]
antiproliferative activity against PC3 cells [1]: excellent antiproliferative activities
melting point: 153 to 155 °C
antimicrobial activity against different microbes [2]: excellent antimicrobial activities
antiproliferative activity against MG-63 cells [3]: excellent antiproliferative activities
